Consider three molecules from patent US10081660B2, “Polynucleotide, polypeptide with immunosuppressive activity, expression cassette, expression vector, host cell, pharmaceutical composition, methods for producing a polypeptide with immunosuppressive activity and for preventing or treating conditions that require immunosuppression, and use of a …” (FUNDAÇÃO BUTANTAN, priority 2013, dated 2018).

One data set has as its system HIII mice. Briefly: Immunosuppressive activity against soluble antigen (human gamma globulin, HGG), anti-HGG antibodies by ELISA. Type of data set: in vivo. Conditions: for suppression of anti-HGG antibody production: single 3 μg dose intraperitoneally, HGG on Al(OH)3 after 24 hours. The method, then:
The immunosuppressive activity can also be evaluated against a soluble antigen, such as human gamma globulin (HGG), adsorbed in aluminum hydroxide, and the antibodies titer determined by ELISA.
Titers were determined by ELISA and calculated considering the highest dilution of experimental sera whose O.D. (optical density) was five times higher than those obtained for normal serum at the same dilution.
The immunosuppressive activity of the synthetic polypeptide P2 (SEQ ID NO: 5) and P6 (SEQ ID NO: 9) was evaluated against HGG, taking into account immunosuppression time after preventive treatment and antigen inoculation. In all protocols, animals received a single dose of the tested polypeptides. In this experiment, the HIII mice (5 animals/group) were treated intraperitoneally with 3 μg of P6 or 3 μg of P2, and after 24 hours, were immunized intraperitoneally with HGG adsorbed on Al(OH)3 (10 μg/animal); The untreated group was used as a positive control receiving only HGG. […] The negative control was represented by a group called normal serum, i.e., serum from untreated and non-immunized animals. O.D. values obtained from the 1:500 dilution were presented herein as average+standard deviation and were statistically analyzed by Student t test. Values were considered significant when p<0.0001 (***); p<0.005 (**); p<0.05 (*) compared to the positive control, i.e., animals immunized only with HGG. Thus, the HIII mice groups received polypeptides SEQ ID NO: 22, P2 and P6.
Background: In an ELISA, binding on a coated surface is turned into a signal by an enzyme label.

The subject of data set [1] is Lineage HIII mice. The data set can be described thus: Immunogenicity analysis: anti-polypeptide antibodies by ELISA after immunization. Conditions: intraperitoneal, bleeding seven days after immunization. It counts as in vivo. The method, then:
The immunogenicity is the capacity of a substance to induce an immune response. To evaluate the immunogenic potential of this invention's polypeptides, the antibody production is determined by the dosage of antibodies titer by ELISA after administration of the present invention polypeptides in potent adjuvants.
Anti-recombinant polypeptide antibodies were measured by ELISA. […] The reactions were developed by the addition of anti-mice-IgG conjugated to peroxidase (1: 7,500), followed by addition of OPD (o-Phenylenediamine dihydrochloride) and H2O2. The reading of the reactions was performed at λ492 nm on a plate spectrophotometer. The titer was established as the highest dilution of experimental sera which optical densities were three times higher than those obtained for normal serum at the same dilution. The data correspond to values obtained from two independent experiments. The significance between different groups (6 animals/group) was p<0.01.
One group was used as a positive control, receiving human gamma globulin (HGG). Bleeding was performed seven days after immunization and antibody production was assessed by ELISA.

Another data set deals with BALB/c mice. The data set can be described thus: Hemorrhagic activity, method of Kondo et al., intradermal injection. Type of data set: in vivo. As to conditions: 4 mg L. muta venom or 50 mg recombinant polypeptide, skin assessed after 2 hours. The method, then:
(1960, Jpn. J. Med. Sci. Biol. 13: 43-52).
After 2 hours, the animals were euthanized and the skin removed to assess the presence of hemorrhage.

For data set [2], the target named is C3 component of human complement system (Homo sapiens, UniProt P01024). The data set can be described thus: Cleavage of C3 component (SDS-PAGE). It counts as biochemical. Conditions: 9 μg human C3, 5 μg polypeptide, 37° C. for 5 hours. The source says:
(§1) Another possibility would be the verification of hydrolysis capacity in known substrates. The proteolytic enzymes of viperidae venoms have, for example, the capacity to hydrolyze the fibrinogen and the C3 component of the human complement system, and verifying this effect is a way of inquiring about the proteolytic activity.
According to the caption on FIG. 14: (A) Human C3; (B) Human C3+venom; (C) Human C3+polypeptide. The samples were subjected to SDS-PAGE (10%) analysis under reducing conditions and the gel was stained with Coomassie blue.

The test system of data set [3] is Lineage HIII mice. Briefly: Immunosuppressive activity against particulate antigen (sheep erythrocytes), hemagglutination. As to conditions: 50 μg intraperitoneally 72 hours before immunization with sheep erythrocytes, […] cells/animal. Type of data set: in vivo. On the procedure: For the invention's polypeptide immunosuppressive activity analysis, Lineage HIII mice constitutively known as good responder to of antibody production are inoculated, intraperitoneally, and immunized with structurally complex and highly immunogenic antigens, such as sheep erythrocytes, a particulate antigen. The animals' serum is then analyzed regarding its hemagglutination activity: the lower is the hemagglutinating effect; the higher is the immunosuppressive capacity of the evaluated compound. The immunosuppressive activity can also be evaluated against a soluble antigen, such as human gamma globulin (HGG), adsorbed in aluminum hydroxide, and the antibodies titer determined by ELISA.
An untreated group was used as positive control and received only E^S. Samples of 50 μL E^S (2% v/v) were incubated with 50 μL of the sera from immunized animals (serially diluted) in 96 U-bottom well plates for 8 hours at room temperature. As negative control, E^S were incubated with PBS only. Antibody titers were that ones whose higher serum dilutions promoted agglutination of erythrocytes. The data are representative of three independent experiments. The significance between different groups was p<0.01 (FIG. 16).

Data set [4] relates to FRET substrate Abz-FRSSRQ EDDnp. The data set can be described thus: Proteolytic activity on extinguished fluorescence (FRET) substrate, spectrofluorometer. Type of data set: biochemical. As to conditions: 10 μg of polypeptide, fluorescence monitored for 1 hour.
The target in the next data set is T1, human fibrinogen (Homo sapiens, UniProt P02671+P02675+P02679).
T1 sequence (P02671 20-629 limits assumed): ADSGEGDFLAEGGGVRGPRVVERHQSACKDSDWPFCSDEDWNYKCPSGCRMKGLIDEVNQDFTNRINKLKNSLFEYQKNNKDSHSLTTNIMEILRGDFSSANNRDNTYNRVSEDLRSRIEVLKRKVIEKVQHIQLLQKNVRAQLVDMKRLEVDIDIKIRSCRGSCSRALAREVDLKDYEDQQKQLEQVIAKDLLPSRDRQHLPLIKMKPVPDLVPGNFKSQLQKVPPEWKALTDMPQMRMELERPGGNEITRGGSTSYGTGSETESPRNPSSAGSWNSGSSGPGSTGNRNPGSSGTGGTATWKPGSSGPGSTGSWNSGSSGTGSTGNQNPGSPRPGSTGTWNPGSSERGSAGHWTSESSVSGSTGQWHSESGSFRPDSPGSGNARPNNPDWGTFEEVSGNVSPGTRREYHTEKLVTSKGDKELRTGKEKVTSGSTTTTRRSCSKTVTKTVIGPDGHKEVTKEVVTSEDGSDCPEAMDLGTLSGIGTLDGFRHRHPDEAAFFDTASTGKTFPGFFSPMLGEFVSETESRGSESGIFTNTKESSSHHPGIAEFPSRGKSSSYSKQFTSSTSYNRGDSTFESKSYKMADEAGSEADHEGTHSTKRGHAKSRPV
T1 sequence (P02675 31-491): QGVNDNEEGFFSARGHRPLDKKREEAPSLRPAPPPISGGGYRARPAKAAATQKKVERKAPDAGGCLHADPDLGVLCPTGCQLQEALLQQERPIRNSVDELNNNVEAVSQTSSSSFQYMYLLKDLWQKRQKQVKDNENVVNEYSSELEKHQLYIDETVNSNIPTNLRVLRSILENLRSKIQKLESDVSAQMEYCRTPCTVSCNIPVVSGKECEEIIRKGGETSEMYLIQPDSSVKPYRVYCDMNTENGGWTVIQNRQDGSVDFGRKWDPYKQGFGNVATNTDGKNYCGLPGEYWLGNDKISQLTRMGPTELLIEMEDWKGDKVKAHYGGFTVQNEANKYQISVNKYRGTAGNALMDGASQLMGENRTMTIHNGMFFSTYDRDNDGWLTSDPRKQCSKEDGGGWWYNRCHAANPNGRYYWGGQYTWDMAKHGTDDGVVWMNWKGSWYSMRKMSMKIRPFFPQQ
T1 sequence (P02679 27-433 limits assumed): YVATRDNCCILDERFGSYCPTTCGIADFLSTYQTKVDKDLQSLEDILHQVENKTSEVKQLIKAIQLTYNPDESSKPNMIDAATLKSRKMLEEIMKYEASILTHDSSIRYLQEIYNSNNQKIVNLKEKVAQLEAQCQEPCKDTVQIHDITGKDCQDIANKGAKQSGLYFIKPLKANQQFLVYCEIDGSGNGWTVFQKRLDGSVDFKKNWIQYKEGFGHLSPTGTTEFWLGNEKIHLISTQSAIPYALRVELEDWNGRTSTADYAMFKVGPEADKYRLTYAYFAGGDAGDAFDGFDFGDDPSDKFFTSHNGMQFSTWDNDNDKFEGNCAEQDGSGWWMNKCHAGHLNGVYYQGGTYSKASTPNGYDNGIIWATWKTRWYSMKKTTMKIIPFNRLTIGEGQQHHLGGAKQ
The data set can be described thus: Fibrinogenolytic assay (SDS-PAGE). Type of data set: biochemical. As to conditions: 30 μg human fibrinogen, 5 μg polypeptide, 37° C. for 5 hours; whole L. muta venom as positive control. On the procedure:
as §1
To confirm the absence of enzymatic activity, one experiment was carried out a fibrinogenolytic assay. […] The samples were subjected to SDS-PAGE (10%) analysis under reducing conditions and the gel was stained with Coomassie blue.

Ends that are not written are not given here.

Sequence of C3 component of human complement system (P01024 23-1663): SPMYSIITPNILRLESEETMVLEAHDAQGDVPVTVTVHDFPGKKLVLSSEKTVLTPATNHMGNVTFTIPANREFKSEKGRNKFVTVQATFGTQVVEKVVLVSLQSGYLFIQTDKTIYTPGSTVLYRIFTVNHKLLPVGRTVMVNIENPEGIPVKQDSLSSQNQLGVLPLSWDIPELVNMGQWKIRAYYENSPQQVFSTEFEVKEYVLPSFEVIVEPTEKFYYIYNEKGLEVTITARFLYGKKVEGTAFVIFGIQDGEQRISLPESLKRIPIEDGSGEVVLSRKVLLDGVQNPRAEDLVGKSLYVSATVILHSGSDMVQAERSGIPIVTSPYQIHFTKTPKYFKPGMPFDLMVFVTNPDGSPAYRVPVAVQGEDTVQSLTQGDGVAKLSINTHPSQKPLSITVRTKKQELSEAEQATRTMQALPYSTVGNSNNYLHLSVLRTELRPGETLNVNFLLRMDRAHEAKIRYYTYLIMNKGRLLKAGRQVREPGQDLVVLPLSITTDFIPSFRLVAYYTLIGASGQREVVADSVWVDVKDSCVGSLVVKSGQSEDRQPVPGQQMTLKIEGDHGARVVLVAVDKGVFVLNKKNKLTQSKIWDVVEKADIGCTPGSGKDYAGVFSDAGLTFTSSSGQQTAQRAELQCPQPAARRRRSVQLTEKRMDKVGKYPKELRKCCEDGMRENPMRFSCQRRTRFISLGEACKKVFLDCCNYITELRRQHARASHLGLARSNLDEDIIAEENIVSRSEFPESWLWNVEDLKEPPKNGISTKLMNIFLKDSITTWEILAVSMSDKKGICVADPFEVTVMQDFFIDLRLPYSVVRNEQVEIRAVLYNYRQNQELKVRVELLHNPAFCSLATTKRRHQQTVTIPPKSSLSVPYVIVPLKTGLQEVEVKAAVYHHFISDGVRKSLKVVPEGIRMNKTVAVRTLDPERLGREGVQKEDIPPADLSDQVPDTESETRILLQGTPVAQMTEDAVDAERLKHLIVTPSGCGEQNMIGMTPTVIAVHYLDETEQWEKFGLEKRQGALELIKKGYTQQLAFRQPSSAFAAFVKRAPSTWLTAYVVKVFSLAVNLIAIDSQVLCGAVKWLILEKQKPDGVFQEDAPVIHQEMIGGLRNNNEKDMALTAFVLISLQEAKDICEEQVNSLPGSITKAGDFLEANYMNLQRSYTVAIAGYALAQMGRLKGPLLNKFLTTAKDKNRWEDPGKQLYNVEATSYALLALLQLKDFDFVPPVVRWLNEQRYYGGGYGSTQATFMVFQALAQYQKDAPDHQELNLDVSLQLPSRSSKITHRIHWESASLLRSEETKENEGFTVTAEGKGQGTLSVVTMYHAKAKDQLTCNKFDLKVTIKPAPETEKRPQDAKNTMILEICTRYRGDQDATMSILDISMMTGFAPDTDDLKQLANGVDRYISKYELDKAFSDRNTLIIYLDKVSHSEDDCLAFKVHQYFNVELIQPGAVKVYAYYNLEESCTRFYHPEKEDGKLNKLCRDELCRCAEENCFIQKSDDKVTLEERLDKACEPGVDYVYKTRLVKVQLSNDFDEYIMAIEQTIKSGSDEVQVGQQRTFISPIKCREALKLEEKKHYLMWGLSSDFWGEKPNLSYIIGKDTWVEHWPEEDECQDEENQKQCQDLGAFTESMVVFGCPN

For the molecule AIDLADNTIGIAYTGG [P2], the “suppression of anti-HGG antibody production” value in the data set with HIII mice (after 7 days), in the data set with HIII mice (after 13 days) and in the data set on HIII mice (after 36 days) was “suppression of anti-HGG antibody production was induced” throughout.
Consider NAQLLTAID [P6], for which, in the data set with HIII mice (P6 3 μg/animal or recombinant polypeptide 50 μg/animal, HGG in Al(OH)3 after 24 hours), the “inhibition of anti-HGG antibody production” value is “inhibition of anti-HGG antibody production”. For the same molecule, the “suppression of anti-HGG antibody production” value with HIII mice (after 7 days), in the data set with HIII mice (after 13 days) and in the data set with HIII mice (after 36 days) was “suppression of anti-HGG antibody production was induced” each time. In the data set on Lineage HIII mice [1] (P6 (3 mg)), the “immunogenicity (production of antibodies against P6)” value was “did not show immunogenicity”.

B1: recombinant polypeptide: SEQ ID NO: 2 plus six histidine residues, T7 phage protein 10 portion and enterokinase site; approximately 30 kDa, expressed in E. coli (protein)
chain: MRGSHHHHHHGMASMTGGQQMGRDLYDDDDKDRWGSELFSQKYIELVVVADHGMFTKYNGNLNTIRTRVHEIVNTLNGFYRSLNIHISLTDLEIWSNQDLINVQSAAADTLKTFGEWRERVLLNRISHDNAQLLTAIDLADNTIGIAYTGGMCYPKNSVGIVQDHSPKTLLIAVTMAHELGHNLGMKHDENHCHCSASFCIMPPSLSEGPSYEFSDCSKDYYEMFLTKRKPQCILNKPWYHGIRSLIRLLTKPERKLSWLLPPLSNN
As for B1, the hemorrhagic activity result in the data set with BALB/c mice was “no hemorrhagic activity”. In addition, the “cleavage of C3 component” value in data set [2] is reported as “unable to cleave the C3 component”. The “hemagglutination by serum of treated animals (antibody response to sheep erythrocytes)” value with Lineage HIII mice [3] is listed as “unable to promote hemagglutination”. Also, in data set [4], the “proteolytic activity on the FRET substrate” value was “absence of recombinant polypeptide proteolytic activity”. Besides, the “immunogenic potential (production of specific anti-recombinant polypeptide antibodies)” value with Lineage HIII mice [1] (50 μg) is on record as “very low or no immunogenic potential”. Further, the hydrolysis of fibrinogen result with human fibrinogen is listed as “not able to hydrolyze fibrinogen”.
